Results from patent US20200345862A1, “TRANSITION METAL-BASED FUNCTIONAL MOIETIES FOR PREPARING CELL TARGETING CONJUGATES” (priority 2017, published 2020).
Read-outs that look alike come from different tables or passages of the source.

Details: HEPES pH 8.1, 47° C., 4 h
Method: To a mixture of water (101 μL) and 200 mM HEPES buffer (12.3 μL, pH 8.1) containing different concentrations of halide salts (0, 100, 500, 1000, and 2000 mM NaCl (for 4a; pH 8.1; the final concentrations of NaCl in the reaction mixtures were 0, 10, 50, 100, and 200 mM, respectively) or 0, 100, and 500 mM NaBr (for 5d; pH 8.1; the final concentrations of NaBr in the reaction mixtures were 0, 10, and 50 mM, respectively) or 0 and 100 mM NaI (for 6k; pH 8.1; the final concentrations of NaI in the reaction mixtures were 0 and 10 mM, respectively), [PtL2((Fe)DFO-suc-pip)(ethane-1,2-diamine)]^+ TFA^− (4a (L2=Cl), 5d (L2=Br) or 6k (L2=I)) (10.0 μL, 5 mM in 20 mM NaCl (4a) or 5 mM in water (5d and 6k), 5.0 eq.) was added. The samples were incubated in a thermoshaker at 47° C. for 1 h, 2 h, and 4 h, followed by the HPLC analysis at 430 nm.

Row | Substance | concentration of the semi-final product after incubation (stability) ([NaBr]=50 mM, FIG. 5) [%] | concentration of the semi-final product after incubation (stability) ([NaI]=10 mM, FIG. 6) [%]
1 | [(Fe)DFO-pip-PtBr(ethane-1,2-diamine)]^+ TFA^− [5d] | 95 | 
2 | [Pt((Fe)DFO-suc-pip)(ethane-1,2-diamine)I]^+ TFA^− [6k] |  | 98
